Literature values, collected in PMC4875922 (Drugs in R&D, 2016).

What was measured:
[1] = not given; remark: listed apart in the source

In the case of `O=C(Nc1cccnn1)N1CCC(=Cc2cccc(Oc3ccc(C(F)(F)F)cn3)c2)CC1` [PF-04457845], the linearity of pharmacokinetics is given as “non-linear pharmacokinetics”, the tolerability (at doses that cause maximal inhibition of FAAH and elevation of plasma endocannabinoids) is given as “well tolerated” and the “effect in phase II study in osteoarthritic pain” value [1] is given as “without effect”.
